Tests used:
HDAC1 = HDAC1 (Homo sapiens, UniProt Q13547); assay: Selective HDAC inhibition, HDAC Fluorogenic assay kit; settings: final concentration 10 µM; HDAC substrate 3 200 µM; positive control (1% DMSO) set to 100
Method: (§1) For analysis, HDAC substrate 3 was diluted in buffer to a concentration of 200 µM and used in HDAC 1, 2, 3, 6, and 10 assays, HDAC substrate 2A was diluted in buffer to a concentration of 200 µM and used in HDAC 4, 7, 9, and 11 assays, HDAC substrate 2A was diluted in buffer to a concentration of 20 µM and used in HDAC 8 assays. For the HDAC 11 assay, a dedicated buffer included in the kit was used separately, and the same buffer was used for the remaining assays. The compound of the Example was diluted to 1 mM (1% DMSO concentration) using DMSO to obtain a final concentration of 10 µM, and prepared by diluting 1/10 with assay buffer. In a 96-well black round-bottom plate, 5 µL of the diluted compound of the Example, 5 µL of the diluted HDAC substrate, 5 µL of BSA (1 mg/ml), 5 µL of the HDAC enzyme diluted to the appropriate concentration, and 30 µL of assay buffer were added, and the enzyme reaction was performed at 37°C for 30 minutes. […] Afterwards, 50 µL of 2X HDAC developer was added to each well. After reacting for 15 minutes at room temperature, the fluorescence values at excitation wavelengths of 350-380 nm and emission wavelengths of 440-460 nm were measured using a microplate reader (Synergy Neo).

HDAC2 = HDAC2 (Homo sapiens, UniProt Q92769); assay: as above; settings: final concentration 10 µM; HDAC substrate 3 200 µM; positive control (1% DMSO) set to 100
Method: as §1

HDAC8 [1] = molecular target: T1, HDAC8 (Homo sapiens, UniProt Q9BY41); assay: as above; format: biochemical; settings: final concentration 10 µM; HDAC substrate 2A 20 µM; positive control (1% DMSO) set to 100; read-out: HDAC8 enzyme activity (%)
T1 construct: purchased BPS bioscience
T1 sequence (Q9BY41 1-377): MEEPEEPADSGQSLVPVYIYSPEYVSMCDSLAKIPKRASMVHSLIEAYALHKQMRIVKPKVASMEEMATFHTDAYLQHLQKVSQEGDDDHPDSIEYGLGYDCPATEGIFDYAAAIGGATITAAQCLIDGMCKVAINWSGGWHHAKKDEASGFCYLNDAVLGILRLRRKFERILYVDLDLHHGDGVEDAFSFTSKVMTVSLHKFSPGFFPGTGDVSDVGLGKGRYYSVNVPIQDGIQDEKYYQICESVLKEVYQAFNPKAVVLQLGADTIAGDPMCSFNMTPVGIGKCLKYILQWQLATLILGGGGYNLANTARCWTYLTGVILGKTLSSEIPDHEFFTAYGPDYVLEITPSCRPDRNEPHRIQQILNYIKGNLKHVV
Method: as §1

HDAC10 = molecular target: T2, HDAC10 (Homo sapiens, UniProt Q969S8); assay: as above; settings: final concentration 10 µM; HDAC substrate 3 200 µM; positive control (1% DMSO) set to 100
T2 sequence (Q969S8 1-669): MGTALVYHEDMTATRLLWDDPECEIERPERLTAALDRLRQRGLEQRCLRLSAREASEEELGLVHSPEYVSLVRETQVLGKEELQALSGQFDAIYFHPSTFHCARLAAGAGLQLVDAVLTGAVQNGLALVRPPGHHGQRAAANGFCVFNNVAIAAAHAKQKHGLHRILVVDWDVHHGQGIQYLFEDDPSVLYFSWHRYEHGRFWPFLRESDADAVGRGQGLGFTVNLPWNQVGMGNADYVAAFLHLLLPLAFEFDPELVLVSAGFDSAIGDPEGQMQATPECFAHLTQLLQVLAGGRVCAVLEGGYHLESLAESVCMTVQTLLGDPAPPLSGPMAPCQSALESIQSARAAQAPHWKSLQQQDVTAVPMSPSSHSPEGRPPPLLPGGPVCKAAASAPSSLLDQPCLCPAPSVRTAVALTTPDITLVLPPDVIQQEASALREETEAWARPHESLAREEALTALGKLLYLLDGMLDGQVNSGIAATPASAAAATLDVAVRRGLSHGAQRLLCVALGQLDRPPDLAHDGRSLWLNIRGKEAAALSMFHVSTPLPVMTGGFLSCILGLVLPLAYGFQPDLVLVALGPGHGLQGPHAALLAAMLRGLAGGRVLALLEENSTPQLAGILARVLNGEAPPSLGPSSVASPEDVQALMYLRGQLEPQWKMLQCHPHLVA
Method: as §1

HDAC9 = HDAC9 (Homo sapiens, UniProt Q9UKV0); assay: as above; settings: read-out: HDAC9 enzyme activity (%)
Chain of HDAC9 (Q9UKV0 whole entry): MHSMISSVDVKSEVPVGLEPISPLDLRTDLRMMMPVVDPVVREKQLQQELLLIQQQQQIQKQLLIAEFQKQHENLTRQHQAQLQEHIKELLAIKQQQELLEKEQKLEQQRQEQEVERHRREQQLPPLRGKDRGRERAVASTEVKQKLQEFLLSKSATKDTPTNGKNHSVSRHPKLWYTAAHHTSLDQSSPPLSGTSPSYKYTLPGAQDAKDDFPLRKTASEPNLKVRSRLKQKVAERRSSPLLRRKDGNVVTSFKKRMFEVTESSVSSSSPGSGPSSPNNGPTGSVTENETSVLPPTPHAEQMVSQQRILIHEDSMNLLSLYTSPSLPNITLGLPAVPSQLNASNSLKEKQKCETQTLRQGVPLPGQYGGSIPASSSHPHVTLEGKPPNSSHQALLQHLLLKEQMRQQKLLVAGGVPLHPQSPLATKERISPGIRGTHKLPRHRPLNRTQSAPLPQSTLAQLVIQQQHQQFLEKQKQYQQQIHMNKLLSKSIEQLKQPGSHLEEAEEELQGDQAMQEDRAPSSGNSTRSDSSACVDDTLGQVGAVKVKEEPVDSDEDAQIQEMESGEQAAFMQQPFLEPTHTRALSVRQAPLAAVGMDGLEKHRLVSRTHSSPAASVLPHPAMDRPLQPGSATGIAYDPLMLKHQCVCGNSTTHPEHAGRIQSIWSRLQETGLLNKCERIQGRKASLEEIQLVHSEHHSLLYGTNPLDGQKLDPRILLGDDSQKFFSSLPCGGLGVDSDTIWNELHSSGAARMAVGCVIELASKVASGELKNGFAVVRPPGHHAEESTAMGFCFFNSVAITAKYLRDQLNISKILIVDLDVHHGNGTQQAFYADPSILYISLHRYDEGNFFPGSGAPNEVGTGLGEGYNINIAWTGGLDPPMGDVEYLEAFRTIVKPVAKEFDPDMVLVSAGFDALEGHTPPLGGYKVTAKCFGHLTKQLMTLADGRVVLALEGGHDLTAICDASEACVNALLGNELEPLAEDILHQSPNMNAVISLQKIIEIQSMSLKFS
Method: as §1

HDAC6 = molecular target: T3, HDAC6 (Homo sapiens, UniProt Q9UBN7); assay: as above; settings: final concentration 10 µM; HDAC substrate 3 200 µM; positive control (1% DMSO) set to 100
T3 sequence (Q9UBN7 1-1215): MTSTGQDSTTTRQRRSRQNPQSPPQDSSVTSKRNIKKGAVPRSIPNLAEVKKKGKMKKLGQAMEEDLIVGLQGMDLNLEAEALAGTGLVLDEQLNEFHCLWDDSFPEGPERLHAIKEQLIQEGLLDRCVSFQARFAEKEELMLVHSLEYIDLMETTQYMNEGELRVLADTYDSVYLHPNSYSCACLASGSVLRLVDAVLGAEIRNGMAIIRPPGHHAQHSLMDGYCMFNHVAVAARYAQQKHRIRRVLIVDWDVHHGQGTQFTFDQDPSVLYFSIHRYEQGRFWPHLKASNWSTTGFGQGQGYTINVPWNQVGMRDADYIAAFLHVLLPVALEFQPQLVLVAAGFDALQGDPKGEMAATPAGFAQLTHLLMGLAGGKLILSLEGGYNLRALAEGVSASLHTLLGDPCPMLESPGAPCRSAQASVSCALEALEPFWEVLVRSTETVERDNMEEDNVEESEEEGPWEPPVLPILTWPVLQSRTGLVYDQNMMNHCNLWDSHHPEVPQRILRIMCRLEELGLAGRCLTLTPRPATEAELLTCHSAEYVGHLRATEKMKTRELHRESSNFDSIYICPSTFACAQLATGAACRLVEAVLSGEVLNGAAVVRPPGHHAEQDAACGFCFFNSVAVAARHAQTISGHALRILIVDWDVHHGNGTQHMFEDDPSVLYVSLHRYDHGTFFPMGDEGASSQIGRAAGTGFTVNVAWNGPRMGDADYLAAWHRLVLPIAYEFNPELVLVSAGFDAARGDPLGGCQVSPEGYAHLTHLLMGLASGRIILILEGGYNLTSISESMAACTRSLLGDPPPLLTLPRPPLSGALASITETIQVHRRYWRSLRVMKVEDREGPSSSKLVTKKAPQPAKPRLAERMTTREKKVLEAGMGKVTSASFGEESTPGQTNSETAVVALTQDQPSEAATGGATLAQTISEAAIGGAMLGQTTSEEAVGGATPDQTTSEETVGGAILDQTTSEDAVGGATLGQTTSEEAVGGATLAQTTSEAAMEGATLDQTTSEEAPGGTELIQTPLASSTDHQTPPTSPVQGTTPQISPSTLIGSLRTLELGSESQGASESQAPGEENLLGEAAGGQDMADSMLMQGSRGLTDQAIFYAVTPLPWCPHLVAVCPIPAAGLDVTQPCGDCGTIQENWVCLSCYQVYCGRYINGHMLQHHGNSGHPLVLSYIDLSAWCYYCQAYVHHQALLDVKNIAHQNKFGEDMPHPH
Method: as §1

HDAC8 [2] = molecular target: T1, HDAC8; assay: HDAC8 inhibitory activity analysis (in vitro), RFU analysis, HDAC Fluorogenic assay kit; format: biochemical; settings: compound final concentration 10 µM; HDAC substrate 2A 20 µM; positive control (1% DMSO) set to 100, lower = more inhibition
Method: The compound of the Example was diluted to 1 mM (1% DMSO concentration) using DMSO to obtain a final concentration of 10 µM, and prepared by diluting 1/10 with assay buffer. In a 96-well black round-bottom plate, 5 µL of the diluted compound of the Example, 5 µL of the diluted HDAC substrate 2A, 5 µL of BSA (1 mg/mL), 5 µL of the HDAC8 enzyme diluted to an appropriate concentration, and 30 µL of assay buffer were added, and the enzyme reaction was performed at 37°C for 30 minutes. […] Afterwards, 50 µL of 2X HDAC developer was added to each well. After reacting for 15 minutes at room temperature, the fluorescence values at excitation wavelengths of 350-380 nm and emission wavelengths of 440-460 nm were measured using a microplate reader (Synergy Neo).

HDAC11 = molecular target: T4, HDAC11 (Homo sapiens, UniProt Q96DB2); assay: Selective HDAC inhibition, HDAC Fluorogenic assay kit; settings: read-out: HDAC11 enzyme activity (%)
T4 sequence (Q96DB2 1-347): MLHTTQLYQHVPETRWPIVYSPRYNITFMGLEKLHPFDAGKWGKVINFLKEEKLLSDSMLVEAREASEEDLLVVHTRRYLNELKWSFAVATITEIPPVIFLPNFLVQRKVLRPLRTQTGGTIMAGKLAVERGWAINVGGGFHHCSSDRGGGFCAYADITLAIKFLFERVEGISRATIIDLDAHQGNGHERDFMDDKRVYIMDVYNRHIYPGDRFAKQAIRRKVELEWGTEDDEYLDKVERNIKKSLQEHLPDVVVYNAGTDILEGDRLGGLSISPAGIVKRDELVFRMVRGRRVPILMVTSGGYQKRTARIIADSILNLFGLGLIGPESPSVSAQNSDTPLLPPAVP
Method: as §1

HDAC4 = HDAC4 (Homo sapiens, UniProt P56524); assay: as above; settings: read-out: HDAC4 enzyme activity (%)
Chain of HDAC4 (P56524 whole entry): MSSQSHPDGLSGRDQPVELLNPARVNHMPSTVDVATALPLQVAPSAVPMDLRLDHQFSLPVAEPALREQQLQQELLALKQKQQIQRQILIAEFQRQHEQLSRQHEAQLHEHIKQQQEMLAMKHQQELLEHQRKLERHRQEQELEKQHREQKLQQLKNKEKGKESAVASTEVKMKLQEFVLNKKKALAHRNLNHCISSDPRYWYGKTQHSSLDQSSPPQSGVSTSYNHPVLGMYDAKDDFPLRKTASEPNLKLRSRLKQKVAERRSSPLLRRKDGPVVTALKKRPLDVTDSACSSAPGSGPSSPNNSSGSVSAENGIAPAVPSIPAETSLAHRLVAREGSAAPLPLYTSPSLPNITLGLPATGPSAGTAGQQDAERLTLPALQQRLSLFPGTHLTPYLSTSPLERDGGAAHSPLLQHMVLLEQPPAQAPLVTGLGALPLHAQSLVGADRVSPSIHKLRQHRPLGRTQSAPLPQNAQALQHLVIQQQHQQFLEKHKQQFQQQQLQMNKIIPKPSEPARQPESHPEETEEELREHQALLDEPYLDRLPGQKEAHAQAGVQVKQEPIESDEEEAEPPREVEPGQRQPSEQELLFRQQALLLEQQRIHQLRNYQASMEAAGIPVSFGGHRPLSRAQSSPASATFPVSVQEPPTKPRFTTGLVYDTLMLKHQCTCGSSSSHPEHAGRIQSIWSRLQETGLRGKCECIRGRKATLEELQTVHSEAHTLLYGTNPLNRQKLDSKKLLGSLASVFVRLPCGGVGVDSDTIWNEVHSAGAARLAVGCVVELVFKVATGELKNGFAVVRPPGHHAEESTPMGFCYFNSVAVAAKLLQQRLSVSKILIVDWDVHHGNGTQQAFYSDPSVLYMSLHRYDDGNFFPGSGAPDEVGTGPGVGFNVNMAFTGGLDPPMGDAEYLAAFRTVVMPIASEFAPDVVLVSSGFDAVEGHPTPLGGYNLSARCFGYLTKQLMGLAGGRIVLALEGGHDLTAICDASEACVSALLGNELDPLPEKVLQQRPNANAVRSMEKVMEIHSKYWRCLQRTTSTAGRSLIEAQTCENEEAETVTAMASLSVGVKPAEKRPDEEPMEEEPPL
Method: as §1

Chain of HDAC2 (Q92769 whole entry): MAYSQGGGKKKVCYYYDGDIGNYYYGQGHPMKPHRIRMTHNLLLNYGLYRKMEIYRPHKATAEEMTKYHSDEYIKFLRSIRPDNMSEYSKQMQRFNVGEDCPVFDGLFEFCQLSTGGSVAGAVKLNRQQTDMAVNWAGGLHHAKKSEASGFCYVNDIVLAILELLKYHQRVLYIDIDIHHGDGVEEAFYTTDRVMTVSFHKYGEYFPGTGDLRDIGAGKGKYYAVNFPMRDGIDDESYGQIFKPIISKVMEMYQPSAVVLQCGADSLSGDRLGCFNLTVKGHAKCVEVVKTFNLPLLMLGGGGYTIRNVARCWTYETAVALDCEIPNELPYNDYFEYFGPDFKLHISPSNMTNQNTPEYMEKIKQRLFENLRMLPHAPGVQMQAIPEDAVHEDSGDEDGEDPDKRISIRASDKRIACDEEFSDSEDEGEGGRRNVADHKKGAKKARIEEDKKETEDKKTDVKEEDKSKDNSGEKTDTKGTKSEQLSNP
Chain of HDAC1 (Q13547 whole entry): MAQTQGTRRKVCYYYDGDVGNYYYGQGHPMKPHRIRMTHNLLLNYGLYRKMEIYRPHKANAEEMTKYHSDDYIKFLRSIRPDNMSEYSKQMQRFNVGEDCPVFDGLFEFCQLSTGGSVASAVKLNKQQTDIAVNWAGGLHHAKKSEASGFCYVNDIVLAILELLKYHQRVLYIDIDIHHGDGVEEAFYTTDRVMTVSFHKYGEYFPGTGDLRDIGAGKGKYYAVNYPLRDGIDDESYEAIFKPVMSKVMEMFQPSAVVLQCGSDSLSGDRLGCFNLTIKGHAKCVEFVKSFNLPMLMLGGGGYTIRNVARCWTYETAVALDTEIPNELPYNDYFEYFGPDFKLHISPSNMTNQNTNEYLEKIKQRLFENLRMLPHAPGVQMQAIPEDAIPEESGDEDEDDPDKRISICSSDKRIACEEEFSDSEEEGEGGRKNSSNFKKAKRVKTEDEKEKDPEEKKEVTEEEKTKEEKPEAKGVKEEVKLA

HDAC1 enzyme activity (%) (HDAC1): 1.22%
HDAC2 enzyme activity (%) (HDAC2): 0.70%
remaining activity at 10 µM (HDAC8 [1]): 11.1%
HDAC10 enzyme activity (%) (HDAC10): 1.21%
remaining activity at 10 µM (HDAC9): 21.5%
HDAC6 enzyme activity (%) (HDAC6): 1.11%
RFU (%) (HDAC8 [2]): 13.83%
remaining activity at 10 µM (HDAC11): 59.1%
remaining activity at 10 µM (HDAC4): 18.8%
SMILES: CC(/C=C/C(=O)NO)=C\[C@@H](C)C(=O)c1ccc(N(C)C)cc1 [TSA, Trichostatin A, reference compound]

Reference: EP4501917A1, “3,4-DIHYDROQUINOXALINE-2-CARBOXIMIDE DERIVATIVE COMPOUND AND PHARMACEUTICAL COMPOSITION COMPRISING SAME FOR PREVENTING OR TREATING CANCER DISEASE” (Daegu-Gyeongbuk Medical Innovation Foundation, priority 2022, dated 2023)
